Laboratory results as given in patent US7842683B2, “Neurotherapeutic compositions and method” (Revaax Pharmaceuticals, LLC, priority 1999, dated 2010).
Like-named read-outs stand apart in the source and are kept apart here.

Legend:
rats [1] = assay: Motor activity in an open field (plus-maze animals); assay type: in vivo, rat
Procedure: However, this depression of motor activity disappears following repeated administration of CDP over several days. […] To control for any non-specific effects of Mox and CDP on motor activity following their direct injection into the brain, animals were tested in the open field 30 min prior to testing in the plus (FIG. 18).
Immediately after each of the plus-maze tests reported above in Section II, animals were tested for general motor activity in an “open field.” Animals were placed into a large clean Plexiglas cage (48×32×40 cm) devoid of bedding. This open field was delineated into equal quadrants by tape on the underside of the cage. Animals were scored for motor activity by counting the number of quadrants traversed in 1 min.

rats [2] = assay: Morris water maze, spatial navigation; assay type: in vivo, rat
Text: The Morris water maze like the radial arm maze was developed to test spatial memory (Morris, 1984). The pool is divided into quadrants usually designated North, South, East and West. The water in the pool is made opaque with milk powder. Hidden just beneath the surface in one of the quadrants is a platform that serves as a escape route for rodents placed into the pool. An animal is placed some where in the pool from a variety of different start points and is timed for latency to find the platform, percent time spent in each quadrant, distance traveled and swimming speed. The animals has no visual or spatial cues in the pool and must rely on extra-maze cues, i.e., objects set up outside the pool that can be seen by the swimming animal. Through a series of trials a rat develops “place learning” or knowledge about the position of the platform based upon the extra-maze cues. The platform can be moved to a different quadrant each day combining spatial memory with working memory. This paradigm involves extinction of the prior memory and resolution of a new spatial problem.
The water maze consisted of a black plastic circular pool ca. 150 cm in diameter and 54 cm in height filled to a level of 35 cm with water made opaque with powdered milk. The pool was divided into four quadrants with a platform 10 cm in diameter submerged 2 cm below the surface in the northwest quadrant. The water was maintained at a temperature of 25° C. Around the pool were several visual cues. Above the pool was a video camera for tracking the movement of the experimental animal. The data collection was completely automated using the software developed by HVS Image (Hampton, UK). Before testing, rats were familiarized with the pool and platform placed in the northwest quadrant. Each day for 4 consecutive days, animals were placed into pool at random sites and given two min to find the platform. Animals were treated one hr before testing with 50 μg/kg Mox (n=11) or vehicle (n=10). Following these familiarization trials, animals were tested for spatial navigation. The first day of testing began with the platform in the expected northwest quadrant. All behavior was videotaped for a two min observation period. After testing the animal were dried off and placed back into their home cage. On each subsequent day the platform was moved to a new quadrant and the rat started at different positions. The rat was always placed into the pool facing the side wall. The start positions relative to the platform were different for each of the four trials; however, the platform was always in the same relative position in each quadrant. Twenty cm in from the side of the pool and in the left corner from the center facing out.
The Morris water maze was developed to test spatial memory (Morris, 1984). The pool is divided into quadrants usually designated North, South, East and West. The water in the pool is made opaque with milk powder. Hidden just beneath the surface in one of the quadrants is a platform that serves as a escape route for rodents placed into the pool. An animal is placed some where in the pool from a variety of different start points and is timed for latency to find the platform, percent time spent in each quadrant, distance traveled and swimming speed. The animals have no visual or spatial cues in the pool and must rely on extra-maze cues, i.e., objects set up outside the pool that can be seen by the swimming animal. Through a series of trials a rat develops “place learning” or knowledge about the position of the platform based upon the extra-maze cues. The platform can be moved to a different quadrant each day combining spatial memory with working memory. This paradigm involves extinction of the prior memory and resolution of a new spatial problem.
The water maze consisted of a black plastic circular pool ca. 150 cm in diameter and 54 cm in height filled to a level of 35 cm with water made opaque with powdered milk. […]

rats [3] = assay: Morris water maze, cue navigation; assay type: in vivo, rat
Procedure: (§1) On the day following the last day (Day 4) of spatial navigation, animals were tested for cue navigation. In these tests, the platform was raised above water level. One hr before testing animals were treated with Mox or saline vehicle. The same animals that were treated with Mox during spatial navigation were treated with Mox for cue navigation. Animals were run through a series of two minute trials with 45 min between trials. At each trial, the platform was moved to a different quadrant. The cue navigation study was identical to the spatial navigation except the platform was visible and the testing was done over five consecutive trials done on a single day. Animals were scored for latency to find the platform, percent time spent in each quadrant, path distance and swim speed for all testing periods
as §1, with “CLAV” for “Mox”, “animals” for “animals that were”, “min” for “minute”

[4] = in vivo, cited from earlier work

## CO[C@@]1(NC(=O)C(C(=O)O)c2ccc(O)cc2)C(=O)N2C(C(=O)O)=C(CSc3nnnn3C)CO[C@@H]21 (stereo partly drawn) [Mox, 7-β-[2-carboxy-2-(4-hydroxyphenyl)acetamido]-7α-methoxy-3-[[(1-methyl-1H-tetrazol-5-yl)thio]methyl]-1-oxa-1-dethia-3-cephem-4-carboxylic acid]
Rats [1]; 1 mM direct injection into the brain, 30 min prior to plus-maze
  general motor activity in the open field: no significant effect
Rats [2]; Mox 50 μg/kg
  distance covered to reach the platform: not significantly different
  percentage of time spent in each quadrant: no significant difference between treatments
  swim speed: significantly greater swim speed
Rats [2]; Mox 50 μg/kg one hr before testing, days two, three and four
  latency to find the hidden platform: significantly shorter latencies
Rats [2]; Mox 50 μg/kg, Day 2
  swim speed relative to vehicle: almost twice the speed
Rats [3]; Mox
  path length: much shorter path length
  percentage of time spent in each quadrant: no significant difference between treatments
  swim speed: no significant difference
Rats [3]; Mox, trials 1, 3 and 4
  latency to find the platform: significantly shorter latencies
[4]
  blood-brain barrier transport / CNS penetrability: greatest penetrability into the CNS
[4]; listed as Moxalactam
  blood-brain barrier transport / CNS penetrability: can penetrate the blood brain barrier

## O=C(O)[C@H]1/C(=C/CO)O[C@@H]2CC(=O)N21 [CLAV, Clavulanic acid]
Rats [1]; CLAV 1.0 μg/kg IP, immediately after plus-maze
  open field activity (quadrants traversed in 1 min): no significant differences
Rats [2]; CLAV 1.0 μg/kg
  percentage of time spent in each quadrant: no significant difference between treatments
  swim rate: no significant difference
Rats [2]; CLAV 1.0 μg/kg one hr before testing
  latency to find the platform, main effect: no main effect for drug treatment
Rats [2]; CLAV 1.0 μg/kg, Day 1
  path length to find the platform: much shorter distance
Rats [2]; CLAV 1.0 μg/kg, Day 2
  time spent in the correct (South) quadrant: over 50%
Rats [2]; CLAV 1.0 μg/kg, Days 1 and 4, trend towards significance
  latency to find the platform: shorter latencies
Rats [3]; CLAV
  distance traveled to find the platform: not significantly different
  latency to find the platform: no main effect for treatments
  percentage of time spent in each quadrant: no significant difference between treatments
  swim rate: no significant main effect
[4]
  blood-brain barrier transport / CNS penetrability: readily passes the blood-brain barrier
[4]; listed as Clavulanate
  blood-brain barrier transport / CNS penetrability: good blood brain barrier transport
